Experimental data: patent publication US20120004222A1, “CB2 RECEPTOR LIGANDS FOR THE TREATMENT OF PAIN” (priority 2007, published 2012)

target: T1, human CB2 (Homo sapiens, UniProt P34972); experiment: Cyclic AMP assay (HTRF) in CHO cells expressing human CB2; format: cell-based; conditions: not given
T1 construct: expressed in transfected cells; host or cells: CHO (Chinese Hamster Ovary) cells
Protocol: Chinese Hamster Ovary cells (CHO) expressing human CB1 or human CB2 (3.3×10^5 cells/ml) were preincubated for 15 min at room temperature with tested agonist and 3-isobutyl-1-methylxanthine (IBMX; 200 μM) in phosphate buffered saline containing 1 mg/ml BSA (assay buffer) followed by 30 min incubation with forskolin in a total volume of 10 μl. The optimal forskolin concentration for each cell line was established in a separate experiment and adjusted to stimulate 70% of maximal cAMP response. cAMP content was measured using an HTRF assay (CisBio) according to the manufacturer's two step protocol.

T1 sequence (P34972 whole entry): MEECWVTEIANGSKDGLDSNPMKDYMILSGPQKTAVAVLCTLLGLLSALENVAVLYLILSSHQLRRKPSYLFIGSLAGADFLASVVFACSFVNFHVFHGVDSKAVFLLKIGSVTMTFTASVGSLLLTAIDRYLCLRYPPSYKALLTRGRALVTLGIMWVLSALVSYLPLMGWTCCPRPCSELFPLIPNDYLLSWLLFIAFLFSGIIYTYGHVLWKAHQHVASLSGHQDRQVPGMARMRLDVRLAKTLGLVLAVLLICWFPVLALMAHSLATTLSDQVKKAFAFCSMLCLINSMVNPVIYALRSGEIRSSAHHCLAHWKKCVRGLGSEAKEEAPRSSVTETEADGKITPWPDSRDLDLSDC

Row | SMILES | IC50 [µM]
1 | FC1(F)CCN(Cc2nc(-c3nc(-c4ccccc4)c[nH]3)n3ccccc23)CC1 [Example II-1, 1-[(4,4-difluoropiperidin-1-yl)methyl]-3-(4-phenyl-1H-imidazol-2-yl)imidazo[1,5-a]pyridine] | 0.178
2 | FC1(F)CCN(Cc2nc(-c3cccc(C(F)(F)F)c3)n3ccccc23)CC1 [Example IV-1, 1-[(4,4-difluoropiperidin-1-yl)methyl]-3-[3-(trifluoromethyl)phenyl]imidazo[1,5-α]pyridine] | 0.017
3 | CC(C)(O)CCc1ccc(-c2nc(CN3CCC(F)(F)CC3)c3ccccn23)cc1 [IV-6, 4-(4-{1-[(4,4-DIFLUOROPIPERIDIN-1- YL)METHYL]IMIDAZO[1,5-A]PYRIDIN-3- YL}PHENYL)-2-METHYLBUTAN-2-OL] | 1.35

same assay, conditions: CHO cells expressing human CB2; forskolin-stimulated cAMP, IBMX 200 μM; read-out: CB2 IC50

Row | SMILES | IC50 [µM]
4 | c1ccc2[nH]c(-c3nc(CN4CCOCC4)c4ccccn34)nc2c1 [Example I-1, 2-[1-(morpholin-4-ylmethyl)imidazo[1,5-a]pyridin-3-yl]-1H-benzimidazole] | 1.26
5 | Fc1ccc(-c2cc(-c3nc(CN4CCOCC4)c4ccccn34)[nH]n2)cc1 [Example III-1, 3-[3-(4-fluorophenyl)-1H-pyrazol-5-yl]-1-(morpholin-4-ylmethyl)imidazo[1,5-a]pyridine] | 0.617
6 | FC1(F)CCN(Cc2nc(-c3nc(-c4ccc(Cl)cc4)c[nH]3)n3ccccc23)CC1 [II-2, 3-[4-(4-CHLOROPHENYL)-1H-IMIDAZOL-2- YL]-1-[(4,4-DIFLUOROPIPERIDIN-1- YL)METHYL]IMIDAZO[1,5-A]PYRIDINE] | 0.199
7 | Fc1ccc(-c2c[nH]c(-c3nc(CN4CCC(F)(F)CC4)c4ccccn34)n2)cc1F [II-4, 3-[4-(3,4-DIFLUOROPHENYL)-1H- IMIDAZOL-2-YL]-1-[(4,4- DIFLUOROPIPERIDIN-1-YL)METHYL] IMIDAZO[1,5-A]PYRIDINE] | 0.171

Second part, the compound after the results:

Row | IC50 [µM] | SMILES
8 | 0.165 | FC1(F)CCN(Cc2nc(-c3nc(-c4cccc(C(F)(F)F)c4)c[nH]3)n3ccccc23)CC1 [II-5, 1-[(4,4-DIFLUOROPIPERIDIN-1- YL)METHYL]-3-{4-[3- (TRIFLUOROMETHYL)PHENYL]-1H- IMIDAZOL-2-YL}IMIDAZO [1,5-A]PYRIDINE]
9 | 0.146 | FC1(F)CCN(Cc2nc(-c3nc(-c4ccc(Cl)cc4Cl)c[nH]3)n3ccccc23)CC1 [II-3, 3-[4-(2,4-DICHLOROPHENYL)-1H- IMIDAZOL-2-YL]-1-[(4,4- DIFLUOROPIPERIDIN-1- YL)METHYL]IMIDAZO[1,5-A]PYRIDINE]
10 | 0.116 | FC1(F)CCN(Cc2nc(-c3ccc(-c4ccn[nH]4)cc3)n3ccccc23)CC1 [IV-4, 1-[(4,4-DIFLUOROPIPERIDIN-1- YL)METHYL]-3-[4-(1H-PYRAZOL-5- YL)PHENYL]IMIDAZO[1,5-A]PYRIDINE]
11 | 0.113 | FC1(F)CCN(Cc2nc(-c3cccc(-n4cccn4)c3)n3ccccc23)CC1 [IV-7, 1-[(4,4-DIFLUOROPIPERIDIN-1- YL)METHYL]-3-[3-(1H-PYRAZOL-1- YL)PHENYL]IMIDAZO[1,5-A]PYRIDINE]
